Results as given in patent publication US20050250819A1 (priority 2004, published 2005).

tested on: Type III protein secretion of the chimeric SopE‘-’Bla polypeptide (SPI1 type III protein secretion system); test: Primary assay: Type III protein secretion of the chimeric SopE'-'Bla polypeptide by Salmonella enterica; assay type: cell-based; conditions: read-out: SopE IC50(μM)
Source text: Primary assay: Type III protein secretion of the chimeric SopE‘-’Bla polypeptide by Salmonella enterica. This procedure is a cell-based assay that measures the type III-dependent secretion by Salmonella enterica of a plasmid-encoded chimeric polypeptide whose synthesis can be regulated, and which is endowed with an enzymatic activity that can be monitored colorimetrically by hydrolysis of a substrate that is unable to penetrate into the bacterial cytoplasm within the time constraints of the reaction. Thus, the colormetric reaction is not influenced by SopE‘-’Bla polypeptide in the bacterial cytplasm. Instead, it effectively measures the amount of polypeptide that has been secreted from the S. enterica cytoplasm to the extracellular medium via type III system protein secretion.
The SopE‘-’Bla recombinant polypeptide consists of two functionally distinct domains spliced together. The N-terminus domain is encoded by a polynucleotide region specifying the signal for type III secretion of the SopE polypeptide of S. enterica, an effector of the SPI1 type III protein secretion system. The C-terminus domain of SopE‘-’Bla consists of a 263 amino acid peptide sequence that corresponds to the TEM-1 β-lactamase expressed by plasmid pBR322 but without its N-terminal signal sequence. The TEM-1 β-lactamase part of the SopE‘-’Bla chimeric polypeptide is used as a reporter enzyme. It is capable of hydrolyzing nitrocefin resulting in a product whose accumulation can be monitored by colorimetric detection. The secretion of the SopE‘-’Bla chimeric polypeptide from the cytoplasm to the extracellular medium is dependent on type III protein secretion.
For this procedure, cells grown under conditions known to favor a functional SPI1 secretion system are induced for expression of the SopE‘-’Bla protein and grown either in the presence or in the absence of putative inhibitors for determined time. Nitrocefin is then added to the various cultures and its hydrolysis are used for quantitation. An inhibitor of Type III protein secretion is generally a compound that reduces the signal of the enzymatic reaction by decreasing the amount of SopE‘-’Bla secreted into the extracellular medium.

`O=C(O)C[C@H](Cc1ccc(Cl)cc1)NC(=O)/C(=C\c1ccc(-c2ccccc2)cc1)NC(=O)c1ccc(C(F)(F)F)cc1` [Compound 13, (S)-3-[3-Biphenyl-4-yl-2-(4-trifluoromethylbenzoylamino)acryloylamino]-4-(4-chlorophenyl)butyric acid] and `O=C(N[C@@H](Cc1ccc(Cl)cc1)C(=O)O)/C(=C\c1ccc(-c2ccccc2)cc1)NC(=O)c1ccc(C(F)(F)F)cc1` [Compound 25, (S)-2-[3-Biphenyl-4-yl-2-(4-trifluoromethylbenzoylamino)acryloylamino]-3-(4-chlorophenyl)propionic acid] are within 1.5-fold of each other in IC50: 5.2 µM for the first, 6 µM for the second.

`O=C(N[C@@H](COCc1ccccc1)C(=O)O)C(=Cc1ccc(Oc2ccccc2)cc1)NC(=O)c1ccc(C(F)(F)F)cc1` [Compound 15, (S)-3-Benzyloxy-2-[3-(4-phenoxyphenyl)-2-(4-trifluoromethylbenzoylamino)-acryloylamino]propionic acid] and `O=C(N[C@H](COCc1ccccc1)C(=O)O)/C(=C\c1ccc(-c2ccccc2)cc1)NC(=O)c1ccc(C(F)(F)F)cc1` [Compound 24, (R)-3-Benzyloxy-2-[3-biphenyl-4-yl-2-(4-trifluoromethylbenzoylamino)-acryloylamino]propionic acid] are within 1.5-fold of each other in IC50: 11 µM for the first, 12.5 µM for the second.

Going from `O=C(N[C@@H](Cc1ccc(Cl)cc1)C(=O)O)/C(=C\c1ccc(Oc2ccccc2)cc1)NC(=O)c1ccc(C(F)(F)F)cc1` [Compound 16, (S)-3-(4-Chlorophenyl)-2-[3-(4-phenoxyphenyl)-2-(4-trifluoromethylbenzoylamino)-acryloylamino]propionic acid] to `O=C(NC(Cc1ccc(Br)cc1)C(=O)O)/C(=C\c1cccc(C(F)(F)F)c1)NC(=O)c1ccc(-c2ccccc2)cc1` (stereo not drawn) [Compound 60, 2-[2-[(Biphenyl-4-carbonyl)amino]-3-(3-trifluoromethylphenyl)acryloylamino]-3-(4-bromophenyl)propionic acid], the IC50 rises from 4.9 µM to 9.2 µM (1.9-fold).

`O=C(N[C@@H](Cc1ccc(Cl)cc1)C(=O)O)/C(=C\c1cccc(C(F)(F)F)c1)NC(=O)c1ccc(Cl)cc1` [Compound 27, (S)-2-[2-(4-Chlorobenzoylamino)-3-(3-trifluoromethylphenyl)acryloylamino]-3-(4-chlorophenyl)propionic acid] and `O=C(N[C@H](Cc1ccc(Cl)cc1)C(=O)O)/C(=C\c1cccc(C(F)(F)F)c1)NC(=O)c1ccc(Cl)cc1` [Compound 28, (R)-2-[2-(4-Chlorobenzoylamino)-3-(3-trifluoromethylphenyl)acryloylamino]-3-(4-chlorophenyl)propionic acid] are within 1.5-fold of each other in IC50: 87 µM for the first, 86 µM for the second.

`O=C(N[C@@H](COCc1ccccc1)C(=O)O)/C(=C\c1ccc(Cl)c(Cl)c1)NC(=O)c1ccc(Cl)cc1` [Compound 29, (S)-3-Benzyloxy-2-[2-(4-chlorobenzoylamino)-3-(3,4-dichlorophenyl)-acryloylamino]propionic acid] and `O=C(N[C@H](COCc1ccccc1)C(=O)O)/C(=C\c1ccc(Cl)c(Cl)c1)NC(=O)c1cc2ccccc2s1` [Compound 68, (R)-2-[2-[(Benzo[b]thiophene-2-carbonyl)amino]-3-(3,4-dichlorophenyl)-acryloylamino]-3-benzyloxypropionic acid] are within 1.5-fold of each other in IC50: 70 µM for the first, 52 µM for the second.

`CC(C)c1ccc(/C=C(/NC(=O)c2ccc(C(F)(F)F)cc2)C(=O)N[C@@H](COCc2ccccc2)C(=O)O)cc1` [Compound 32, (S)-3-Benzyloxy-2-[3-(4-isopropylphenyl)-2-(4-trifluoromethylbenzoylamino)-acryloylamino]propionic acid] and `O=C(N[C@@H](CSCc1ccccc1)C(=O)O)/C(=C\c1ccc(Br)cc1)NC(=O)c1ccc(C(F)(F)F)cc1` [Compound 41, (R)-3-Benzylsulfanyl-2-[3-(4-bromophenyl)-2-(4-trifluoromethylbenzoylamino)-acryloylamino]propionic acid] are within 1.5-fold of each other in IC50: 34.8 µM for the first, 48 µM for the second.

`O=C(N[C@H](Cc1ccc(Cl)cc1)C(=O)O)/C(=C\c1cccc(C(F)(F)F)c1)NC(=O)c1ccc(OC(F)(F)F)cc1` [Compound 36, (R)-3-(4-Chlorophenyl)-2-[2-(4-trifluoromethoxybenzoylamino)-3-(3-trifluoromethylphenyl)acryloylamino]propionic acid] and `O=C(N[C@@H](Cc1ccc(Cl)cc1)C(=O)O)/C(=C\c1cccc(C(F)(F)F)c1)NC(=O)c1ccc(OC(F)(F)F)cc1` [Compound 37, (S)-3-(4-Chlorophenyl)-2-[2-(4-trifluoromethoxybenzoylamino)-3-(3-trifluoromethylphenyl)acryloylamino]propionic acid] are within 1.5-fold of each other in IC50: 21.6 µM for the first, 25 µM for the second.

Going from `CN(C(=O)/C(=C\c1cccc(C(F)(F)F)c1)NC(=O)c1ccc(-c2ccccc2)cc1)[C@H](Cc1ccc(Cl)cc1)C(=O)O` [Compound 42, (R)-2-{[2-[(Biphenyl-4-carbonyl)amino]-3-(3-trifluoromethylphenyl)acryloyl]-methylamino}-3-(4-chlorophenyl)propionic acid] to `O=C(NN(Cc1cccc(C(F)(F)F)c1)C(=O)NC(Cc1ccc(Cl)cc1)C(=O)O)c1ccc(-c2ccccc2)cc1` (stereo not drawn) [Compound 51, 4-Biphenylcarboxylic acid-N′-[(3-trifluoromethylphenyl)methyl]-N′-[[[2-(4-chlorophenyl)-1-carboxyethyl]amino]carbonyl]hydrazide], the IC50 falls from 15 µM to 8 µM (1.9-fold). The second is the more potent here.

Going from `O=C(N[C@@H](CSCc1ccccc1)C(=O)O)/C(=C\c1cccc(Oc2ccccc2)c1)NC(=O)c1ccc(Cl)cc1` [Compound 43, (R)-3-Benzylsulfanyl-2-[2-(4-chlorobenzoylamino)-3-(3-phenoxyphenyl)-acryloylamino]propionic acid] to `O=C(N[C@@H](CSCc1ccccc1)C(=O)O)/C(=C\c1ccc2ccccc2c1)NC(=O)c1ccc(Br)cc1` [Compound 45, (R)-3-Benzylsulfanyl-2-[2-(4-bromobenzoylamino)-3-naphthalen-2-yl-acryloylamino]propionic acid], the IC50 rises from 34.2 µM to 81.6 µM (2.4-fold).

Going from `O=C(N[C@@H](CSCc1ccccc1)C(=O)O)C(=Cc1ccc2ccccc2c1)NC(=O)c1ccc(I)cc1` [Compound 46, (R)-3-Benzylsulfanyl-2-[2-(4-iodobenzoylamino)-3-naphthalen-2-yl-acryloylamino]propionic acid] to `O=C(N[C@H](CSCc1ccccc1)C(=O)O)/C(=C\c1ccc(C(F)(F)F)cc1)NC(=O)c1cc2ccccc2s1` [Compound 64, (S)-2-[2-[(Benzo[b]thiophene-2-carbonyl)amino]-3-(4-trifluoromethylphenyl)-acryloylamino]-3-benzylsulfanylpropionic acid], the IC50 rises from 28.6 µM to 49.4 µM (1.7-fold).

Going from `O=C(NN(Cc1ccc(Cl)c(C(F)(F)F)c1)C(=O)NC(Cc1ccc(Cl)cc1)C(=O)O)c1ccc(-c2ccccc2)cc1` (stereo not drawn) [Compound 52, 4-Biphenylcarboxylic acid-N′-[(4-chloro-3-trifluoromethylphenyl)methyl]-N′-[[[2-(4-chlorophenyl)-1-carboxyethyl]amino]carbonyl]hydrazide] to `O=C(N[C@@H](Cc1ccc(Cl)cc1)C(=O)O)/C(=C\c1cccc(C(F)(F)F)c1)NC(=O)c1cc2ccccc2o1` [Compound 69, (S)-2-[2-[(Benzofuran-2-carbonyl)amino]-3-(3-trifluoromethylphenyl)acryloylamino]-3-(4-chlorophenyl)propionic acid], the IC50 rises from 3.1 µM to 28.5 µM (9.2-fold).

`O=C(N[C@@H](CSCc1ccccc1)C(=O)O)/C(=C\c1ccc(OCc2ccncc2)cc1)NC(=O)c1ccc(C(F)(F)F)cc1` [Compound 59, (R)-3-Benzylsulfanyl-2-[3-[4-(pyridin-4-yl-methoxy)phenyl]-2-(4-trifluoromethyl-benzoylamino)acryloylamino]propionic acid] and `O=C(N[C@H](COCc1ccccc1)C(=O)O)/C(=C\c1ccc(C(F)(F)F)cc1)NC(=O)c1cc2ccccc2s1` [Compound 65, (R)-2-[2-[(Benzo[b]thiophene-2-carbonyl)amino]-3-(4-trifluoromethylphenyl)-acryloylamino]-3-benzyloxypropionic acid] are within 1.5-fold of each other in IC50: 73.4 µM for the first, 88 µM for the second.

Compared with `O=C(NC(=Cc1cccc(C(F)(F)F)c1)C(=O)N1C(c2ccc(F)cc2)SC[C@H]1C(=O)O)c1ccc(-c2ccccc2)cc1` (stereo partly drawn) [Compound 61, (4R)-3-[2-[(Biphenyl-4-carbonyl)amino]-3-(3-trifluoromethylphenyl)acryloyl]-2-(4-fluorophenyl)thiazolidine-4-carboxylic acid], `O=C(N[C@H](CSCc1ccccc1)C(=O)O)/C(=C\c1ccc(Cl)c(Cl)c1)NC(=O)c1cc2ccccc2s1` [Compound 67, (S)-2-[2-[(Benzo[b]thiophene-2-carbonyl)amino]-3-(3,4-dichlorophenyl)-acryloylamino]-3-benzylsulfanylpropionic acid] is 7.3-fold higher in IC50: 3.7 µM for the first, 27 µM for the second.

Work on `O=C(N[C@@H](Cc1ccc(Cl)cc1)C(=O)O)/C(=C\c1ccc(Cl)c(Cl)c1)NC(=O)c1cc2ccccc2s1` [Compound 66, (S)-2-[2-[(Benzo[b]thiophene-2-carbonyl)amino]-3-(3,4-dichlorophenyl)-acryloylamino]-3-(4-chlorophenyl)propionic acid] yielded an IC50 of 19 µM.
